Reference: ChEMBL document CHEMBL3046907, “Microwave-assisted synthesis of pyrido[1,2-a]benzimidazole derivatives of -aryloxyquinoline and their antimicrobial and antituberculosis activities” (2013)
In brackets after ≈: the same amount, converted by molar mass.

Tests used:
Assay type in all cases: functional
[1] = system: Mycobacterium tuberculosis; test: Antitubercular activity against Mycobacterium tuberculosis H37Rv after 28 days by Lowenstein-Jensen method; conditions: 672 h
[2] = system: Aspergillus fumigatus; test: Antifungal activity against Aspergillus fumigatus MTCC 3008 after overnight incubation by broth microdilution method
[3] = system: Bacillus subtilis; test: Antibacterial activity against Bacillus subtilis MTCC 441 after overnight incubation by broth microdilution method
[4] = system: Clostridium tetani; test: Antibacterial activity against Clostridium tetani MTCC 449 after overnight incubation by broth microdilution method
[5] = system: Salmonella typhi; test: Antibacterial activity against Salmonella enterica subsp. enterica serovar Typhi MTCC 98 after overnight incubation by broth microdilution method
[6] = system: Candida albicans; test: Antifungal activity against Candida albicans MTCC 227 after overnight incubation by broth microdilution method
[7] = system: Vibrio cholerae; test: Antibacterial activity against Vibrio cholerae MTCC 3906 after overnight incubation by broth microdilution method
[8] = system: Escherichia coli; test: Antibacterial activity against Escherichia coli MTCC 443 after overnight incubation by broth microdilution method
[9] = system: Mycobacterium tuberculosis; test: Growth inhibition of Mycobacterium tuberculosis H37Rv at 6.25 ug/ml after 28 days by Lowenstein-Jensen method; conditions: 672 h, read-out: GI
[10] = system: Streptococcus pneumoniae; test: Antibacterial activity against Streptococcus pneumoniae MTCC 1936 after overnight incubation by broth microdilution method

Compound	MIC [1] [µg/mL]	MIC99 [2] [µg/mL]	MIC99 [3] [µg/mL]	MIC99 [4] [µg/mL]	MIC99 [5] [µg/mL]	MIC99 [6] [µg/mL]	MIC99 [7] [µg/mL]	MIC99 [8] [µg/mL]	inhibition of growth at 6.25 µg/mL [9] [%]	MIC99 [10] [µg/mL]
Cc1ccc2nc(Oc3ccc(F)cc3)c(-c3c(C#N)c(N)n4c(nc5cc(C)ccc54)c3C#N)cc2c1	12.5 (≈ 25.1 µM)	> 1000	250 (≈ 501 µM)	100 (≈ 201 µM)	200 (≈ 401 µM)	> 1000	100 (≈ 201 µM)	200 (≈ 401 µM)	97	200 (≈ 401 µM)
O=C(O)c1cn(C2CC2)c2cc(N3CCNCC3)c(F)cc2c1=O [CIPROFLOXACIN]			50 (≈ 151 µM)		25 (≈ 75.4 µM)		25 (≈ 75.4 µM)	25 (≈ 75.4 µM)		50 (≈ 151 µM)
Cc1ccc2nc(Oc3ccc(F)cc3)c(-c3c(C#N)c(N)n4c(nc5ccccc54)c3C#N)cc2c1	25 (≈ 51.6 µM)	500 (≈ 1030 µM)	250 (≈ 516 µM)	250 (≈ 516 µM)	250 (≈ 516 µM)	250 (≈ 516 µM)	250 (≈ 516 µM)	200 (≈ 413 µM)	94	200 (≈ 413 µM)
COc1ccc(Oc2nc3ccccc3cc2-c2c(C#N)c(N)n3c(nc4ccccc43)c2C#N)cc1		500 (≈ 1040 µM)	250 (≈ 518 µM)	250 (≈ 518 µM)	200 (≈ 415 µM)	250 (≈ 518 µM)	125 (≈ 259 µM)	125 (≈ 259 µM)	24	200 (≈ 415 µM)
COc1ccc2nc(Oc3ccccc3)c(-c3c(C#N)c(N)n4c(nc5cc(C)ccc54)c3C#N)cc2c1		500 (≈ 1010 µM)	250 (≈ 503 µM)	250 (≈ 503 µM)	100 (≈ 201 µM)	1000 (≈ 2010 µM)	250 (≈ 503 µM)	62.5 (≈ 126 µM)	78	250 (≈ 503 µM)
COc1ccc(Oc2nc3ccc(C)cc3cc2-c2c(C#N)c(N)n3c(nc4cc(C)ccc43)c2C#N)cc1		> 1000	125 (≈ 245 µM)	100 (≈ 196 µM)	250 (≈ 490 µM)	1000 (≈ 1960 µM)	200 (≈ 392 µM)	250 (≈ 490 µM)	25	125 (≈ 245 µM)
COc1ccc2nc(Oc3ccccc3)c(-c3c(C#N)c(N)n4c(nc5ccccc54)c3C#N)cc2c1		1000 (≈ 2070 µM)	250 (≈ 518 µM)	100 (≈ 207 µM)	200 (≈ 415 µM)	500 (≈ 1040 µM)	200 (≈ 415 µM)	250 (≈ 518 µM)	46	250 (≈ 518 µM)
Cc1ccc(Oc2nc3ccccc3cc2-c2c(C#N)c(N)n3c(nc4cc(C)ccc43)c2C#N)cc1		1000 (≈ 2080 µM)	250 (≈ 520 µM)	62.5 (≈ 130 µM)	200 (≈ 416 µM)	500 (≈ 1040 µM)	200 (≈ 416 µM)	62.5 (≈ 130 µM)	12	200 (≈ 416 µM)
COc1ccc2nc(Oc3ccc(C)cc3)c(-c3c(C#N)c(N)n4c(nc5cc(C)ccc54)c3C#N)cc2c1		> 1000	125 (≈ 245 µM)	200 (≈ 392 µM)	100 (≈ 196 µM)	1000 (≈ 1960 µM)	125 (≈ 245 µM)	200 (≈ 392 µM)	10	100 (≈ 196 µM)
N#Cc1c(-c2cc3ccccc3nc2Oc2ccc(F)cc2)c(C#N)c2nc3ccccc3n2c1N		500 (≈ 1060 µM)	250 (≈ 531 µM)	200 (≈ 425 µM)	250 (≈ 531 µM)	500 (≈ 1060 µM)	250 (≈ 531 µM)	200 (≈ 425 µM)	75	125 (≈ 266 µM)
Cc1ccc(Oc2nc3ccc(C)cc3cc2-c2c(C#N)c(N)n3c(nc4ccccc43)c2C#N)cc1		> 1000	100 (≈ 208 µM)	500 (≈ 1040 µM)	125 (≈ 260 µM)	1000 (≈ 2080 µM)	100 (≈ 208 µM)	100 (≈ 208 µM)	32	250 (≈ 520 µM)
Cc1ccc2c(c1)nc1c(C#N)c(-c3cc4ccccc4nc3Oc3ccc(F)cc3)c(C#N)c(N)n12	6.25 (≈ 12.9 µM)	> 1000	500 (≈ 1030 µM)	250 (≈ 516 µM)	125 (≈ 258 µM)	250 (≈ 516 µM)	500 (≈ 1030 µM)	62.5 (≈ 129 µM)	99	100 (≈ 206 µM)
COc1ccc(Oc2nc3ccc(OC)cc3cc2-c2c(C#N)c(N)n3c(nc4ccccc43)c2C#N)cc1		250 (≈ 488 µM)	250 (≈ 488 µM)	200 (≈ 390 µM)	200 (≈ 390 µM)	> 1000	125 (≈ 244 µM)	125 (≈ 244 µM)	79	500 (≈ 976 µM)
COc1ccc(Oc2nc3ccccc3cc2-c2c(C#N)c(N)n3c(nc4cc(C)ccc43)c2C#N)cc1		1000 (≈ 2010 µM)	250 (≈ 503 µM)	200 (≈ 403 µM)	125 (≈ 252 µM)	200 (≈ 403 µM)	250 (≈ 503 µM)	100 (≈ 201 µM)	64	250 (≈ 503 µM)
CO[C@H]1/C=C/O[C@@]2(C)Oc3c(C)c(O)c4c(O)c(c(/C=N/N5CCN(C)CC5)c(O)c4c3C2=O)NC(=O)/C(C)=C\C=C\[C@H](C)[C@H](O)[C@@H](C)[C@@H](O)[C@@H](C)[C@H](OC(C)=O)[C@@H]1C [RIFAMPIN]	40 (≈ 48.6 µM)								98	
